Reference: patent US4902720A (priority 1988, dated 1990)

Legend:
Vero cells = settings: 25 mg/ml, 48 hours, 37° C.
Protocol: (§1) Healthy confluent monolayer cell cultures were overlaid with 1 ml of the drug and incubated for 48 hours at 37° C. and then stained. Cell cultures with maintenance media were used as controls.

RK-13 cells = settings: 25 mg/ml, 48 hours, 37° C.
Protocol: as §1

[1] = test system: Flow 1000 cells (foreskin cells); settings: 25 mg/ml, 48 hours, 37° C.
Protocol: as §1

HSV-1 and HSV-2 = type: cell-based; settings: summary
HSV-2 (333 strain) = test: Plaque inhibition by HMB, HSV-2 333 strain in Vero cells (third series, Experiments 1M-1P); type: cell-based
Protocol: In this experiment, 25 mg/ml HMB was tested on Vero cells infected with HSV-2. The virus control cultures, without HMB, had 705 plaque.
The number of plaque on the virus control was about 10 to 12 plaque.
In this experiment, 25 mg/ml, 20 mg/ml, and 15 mg/ml of HMB concentrations were tested on Vero cells infected with HSV-2. […] The experimental flasks had as many, or more, plaque as the control, with an average of 154 plaque for the control and 169 plaque for the HMB-treated flasks.
HMB was further tested at a concentration of 20 mg/ml of reinfected Vero cells.

For `C[N+](C)(C)CCCCCC[N+](C)(C)C` [HMB, hexamethonium bromide], which toxicity (Vero cells) is on record?
Its toxicity is “no toxicity”.

What about the toxicity (RK-13 cells) of the same compound?
Its toxicity is “slight toxicity”.

What about the toxicity [1] of the same compound?
The toxicity was “no toxicity”.

And the “in vitro replication of HSV-1 and HSV-2” value (HSV-1 and HSV-2)?
The value was “inhibit the in vitro replication of HSV-1 and HSV-2”.

And the “appearance of cell layer” value (HSV-2 (333 strain); Exp. 1M, 25 mg/ml HMB)?
Its value is “thin cell layer”.

And the number of plaque (HSV-2 (333 strain); Exp. 1M, 25 mg/ml HMB, control 705)?
The number of plaque was 142 plaque.

What about the inhibition of plaque (HSV-2 (333 strain); Exp. 1N, 20 mg/ml HMB, control about 10 to 12 plaque) of the same compound?
The inhibition of plaque was “complete inhibition of plaque”.

What about the effect on plaque (HSV-2 (333 strain); Exp. 1O, 15 mg/ml HMB) of the same compound?
Its effect on plaque is “did not have any effect”.

What about the “average number of plaque” value (HSV-2 (333 strain); Exp. 1O, 15 mg/ml HMB, control 154) of the same compound?
The value was 169 plaque.

And the number of plaque (HSV-2 (333 strain); Exp. 1O, 20 mg/ml HMB)?
The number of plaque was “no plaque”.

And the “toxicity to the monolayer” value (HSV-2 (333 strain); Exp. 1O, 25 mg/ml HMB)?
Its value is “toxic to the monolayer”.

And the number of plaque (HSV-2 (333 strain); Exp. 1O, 25 mg/ml HMB, most likely due to toxicity)?
Its number of plaque is “no plaque”.

And the inhibition at 25000 µg/mL (HSV-2 (333 strain); Human alphaherpesvirus 2, Vero, Exp. 1M, 25 mg/ml HMB)?
Its inhibition at 25000 µg/mL is 80%.

What about the inhibition at 20000 µg/mL (HSV-2 (333 strain); Human alphaherpesvirus 2, Vero, Exp. 1P, 20 mg/ml HMB) of the same compound?
The inhibition at 20000 µg/mL was 91%.
